Source: patent US12448358B2, “Inhibitors of protein arginine deiminase 1 and methods of preparation and use thereof” (University of Massachusetts, priority 2019, dated 2025)

Molecular target: T1, PAD1 (Homo sapiens, UniProt Q9ULC6)
T1 construct: made in house
T1 sequence (Q9ULC6 1-663): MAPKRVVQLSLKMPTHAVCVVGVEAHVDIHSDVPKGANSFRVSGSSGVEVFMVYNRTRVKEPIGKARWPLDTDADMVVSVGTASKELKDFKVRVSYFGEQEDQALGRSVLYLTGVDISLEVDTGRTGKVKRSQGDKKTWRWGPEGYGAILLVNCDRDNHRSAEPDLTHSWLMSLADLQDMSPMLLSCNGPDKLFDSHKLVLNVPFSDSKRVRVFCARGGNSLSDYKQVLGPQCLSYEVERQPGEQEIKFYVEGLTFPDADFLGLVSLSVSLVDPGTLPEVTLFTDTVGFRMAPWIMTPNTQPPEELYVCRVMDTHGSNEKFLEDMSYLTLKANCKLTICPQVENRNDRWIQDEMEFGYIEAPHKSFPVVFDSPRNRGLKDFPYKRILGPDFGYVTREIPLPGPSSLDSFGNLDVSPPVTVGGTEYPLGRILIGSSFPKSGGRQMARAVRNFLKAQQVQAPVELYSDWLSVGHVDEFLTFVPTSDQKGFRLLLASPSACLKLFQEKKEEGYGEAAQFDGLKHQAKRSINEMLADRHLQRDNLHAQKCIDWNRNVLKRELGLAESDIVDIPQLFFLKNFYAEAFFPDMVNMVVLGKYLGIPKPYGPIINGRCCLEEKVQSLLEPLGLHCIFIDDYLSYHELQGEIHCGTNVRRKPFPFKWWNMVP
Assay: Streptavidin enrichment and ReDiMe proteomics of proteins labelled by probe in HEK293TPAD1 cells (PAD1)
Format: cell-based
Details: 5 μM probe versus control
Description: Enrichment of Proteins Labelled by 21 in HEK293TPAD1 Cells on Streptavidin-agarose. HEK293TPAD1 cells were cultured in 175 cm^2 T-175 flasks in DMEM (supplemented with 10% heat-inactivated fetal bovine serum, 100 units/mL penicillin, 100 μg/mL streptomycin and 0.15 mg/mL hygromycin B). Upon reaching ˜90% confluence, cells were treated with 1 mM CaCl2, 5 μM ionomycin and 5 μM of 21 (or equal volume of DMSO for control) in serum-free DMEM for 3 h. Then the cells were scraped, harvested by centrifugation at 3,000 rpm for 5 min and resuspended in 1×PBS. Cell lysis was performed by probe sonication and soluble proteins in the lysates were quantified by DC Assay (Bio-Rad). Endogenous biotinylated proteins were precleared by incubating the lysates with streptavidin-agarose beads (25 μL for 1 mg of total protein in the lysate) at room temperature for 1 h with constant mixing on an end-over-end shaker. The mixture was centrifuged (1200 g, 3 minute) to separate the beads and the supernatant (pre-cleared lysate). Pre-cleared lysates (2 mg/mL, 500 μL final) were clicked with Biotin-N3 (100 μM), TCEP (1.5 mM), TBTA (0.3 mM) and freshly prepared CuSO4 (4 mM), and the tubes were gently tumbled at room temperature for 2 h. The precipitated proteins were collected by centrifugation at 5,000 rpm for 10 min. […]

Enrichment ratio (heavy/light) of PAD1: ~20
SMILES: C#Cc1c(I)cc(C(=O)N[C@@H](CCCNC(=N)CF)c2nc3ccccc3[nH]2)c(O)c1I [Compound 21]
